Test results taken from patent US10562891B2, “Quinazolinones as PARP14 inhibitors” (Ribon Therapeutics Inc., priority 2017, dated 2020).
Counter-ions that a name gives are not always drawn.

biological target: catalytic domain of human PARP14 (Homo sapiens (Human), UniProt Q460N5); test: Enzymatic assay for inhibition of PARP14 (DELFIA, auto-modification with biotin-NAD); type: biochemical; conditions: auto-modification of PARP14 by biotin-NAD, 50 nM PARP14, 3 μM biotin-NAD
Method in brief: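 DELFIA auto-modification read-out: europium-streptavidin bound to biotin-NAD incorporated onto nickel-captured His-TEV PARP14 catalytic domain. Compound preincubated 30 min, then 50 nM enzyme with 3 μM biotin-NAD reacted 3 h, all at 25 °C, pH 8, then NAD quench. Percent inhibition normalized to rucaparib/DMSO wells, fitted (4- or 3-parameter) for IC50.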

catalytic domain of human PARP14, sequence (Q460N5 1611-1801): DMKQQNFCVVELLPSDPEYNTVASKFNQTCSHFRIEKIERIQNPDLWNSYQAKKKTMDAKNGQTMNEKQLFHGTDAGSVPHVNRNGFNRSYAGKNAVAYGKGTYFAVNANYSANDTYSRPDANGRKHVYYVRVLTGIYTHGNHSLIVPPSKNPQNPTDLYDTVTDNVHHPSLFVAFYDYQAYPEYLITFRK

Structure (SMILES)	IC50 [µM]
Cc1cccc2c(=O)[nH]c(CSC3CCN(C[C@H](O)CO)CC3)nc12 [Example 159, (S)-2-(((1-(2,3-Dihydroxypropyl)piperidin-4-yl)thio)methyl)-8-methyl quinazolin-4(3H)-one Trifluoroacetate]	1 to 10
CC(=O)N1CCC(Nc2ccc3c(=O)[nH]c(CSC4CCOCC4)nc3c2)CC1 [Example 131, 7-((1-Acetylpiperidin-4-yl)amino)-2-(((tetrahydro-2H-pyran-4-yl)thio)methyl) quinazolin-4(3H)-one]	1 to 10
O=c1[nH]c(CS[C@H]2CCNC[C@@H](F)C2)nc2cc(NC3CCCC3)cc(F)c12 (relative stereo) [Example 241, 7-(Cyclopentylamino)-5-fluoro-2-(((cis-6-fluoroazepan-4-yl)thio)methyl)quinazolin-4(3H)-one]	< 1
Cc1cccc2c(=O)[nH]c(CS[C@H]3C[C@H](N)C3)nc12 [Example 52, 2-(((trans-3-Aminocyclobutyl)thio)methyl)-8-methylquinazolin-4(3H)-one Hydrochloride]	1 to 10
O=c1[nH]c(CSC2CCOCC2)nc2cc(N3CCOCC3)ccc12 [Example 111, 7-Morpholino-2-(((tetrahydro-2H-pyran-4-yl)thio)methyl)quinazolin-4(3H)-one]	1 to 10
CS(=O)(=O)N1CCC[C@@H](Nc2cc(F)c3c(=O)[nH]c(CSC4CCOCC4)nc3c2)C1 [Example 250, (R)-5-fluoro-7-((1-(methylsulfonyl)piperidin-3-yl)amino)-2-(((tetrahydro-2H-pyran-4-yl)thio)methyl)quinazolin-4(3H)-one]	< 1
Cc1cccc2c(=O)[nH]c(CS[C@H]3CCC[C@@H](N)CC3)nc12 (relative stereo) [Example 55, 2-(((cis-4-Aminocycloheptyl)thio)methyl)-8-methylquinazolin-4(3H)-one Trifluoroacetate]	1 to 10
Cc1cccc2c(=O)[nH]c(CSC3CCN(Cc4c[nH]c5ccncc45)CC3)nc12 [Example 151, 2-(((1-((1H-Pyrrolo[3,2-c]pyridin-3-yl)methyl)piperidin-4-yl)thio)methyl)-8-methylquinazolin-4(3H)-one bistrifluoroacetate]	< 1
Cc1cccc2c(=O)[nH]c(CS[C@H]3CC[C@@H](CN)CC3)nc12 [Example 65, 2-(((cis-4-(Aminomethyl)cyclohexyl)thio)methyl)-8-methylquinazolin-4(3H)-one Trifluoroacetate]	1 to 10
Cc1ccc(F)c2c(=O)[nH]c(CSC3CCC(O)CC3)nc12 (stereo not shown) [Example 56, 5-Fluoro-2-(((4-hydroxycyclohexyl)thio)methyl)-8-methylquinazolin-4(3H)-one]	< 1
Cn1ccnc1Nc1ccc2c(=O)[nH]c(CSC3CCOCC3)nc2c1 [Example 88, 7-((1-Methyl-1H-imidazol-2-yl)amino)-2-(((tetrahydro-2H-pyran-4-yl)thio)methyl)quinazolin-4(3H)-one]	> 10
O=c1[nH]c(CSC2CCNCC2)nc2nc(OCC3CC3)ccc12 [Example 229, 7-(Cyclopropylmethoxy)-2-((piperidin-4-ylthio)methyl)pyrido[2,3-d]pyrimidin-4(3H)-one Hydrochloride]	< 1
O=c1[nH]c(CS[C@H]2CCN[C@H](C(F)(F)F)C2)nc2cc(NC3CCCC3)cc(F)c12 (relative stereo) [Example 227, 7-(Cyclopentylamino)-5-fluoro-2-(((trans-2-(trifluoromethyl)piperidin-4-yl)thio)methyl)quinazolin-4(3H)-one bis Trifluoroacetate]	1 to 10
O=c1[nH]c(CS[C@H]2CCNC[C@@H]2F)nc2cc(NC3CCCC3)cc(F)c12 (relative stereo) [Example 210, 7-(Cyclopentylamino)-5-fluoro-2-(((trans-3-fluoropiperidin-4-yl)thio)methyl)quinazolin-4(3H)-one Hydrochloride]	< 1
O=c1[nH]c(CS[C@H]2CC[C@@H](CO)CC2)nc2cc(Nc3cccnc3)ccc12 [Example 106, 2-(((cis-4-(Hydroxymethyl)cyclohexyl)thio)methyl)-7-(pyridin-3-ylamino) quinazolin-4(3H)-one]	1 to 10
Cc1cccc2c(=O)[nH]c(CS[C@H]3CC[C@@H](O)CC3)nc12 [Example 24, 2-((((cis)-4-Hydroxycyclohexyl)thio)methyl)-8-methylquinazolin-4(3H)-one]	1 to 10
Cc1cccc2c(=O)[nH]c(CSC3CCN(C(=O)[C@H](N)CCCNC(=N)N)CC3)nc12 [Example 169, (R)-1-(4-Amino-5-(4-(((8-methyl-4-oxo-3,4-dihydroquinazolin-2-yl)methyl)thio)piperidin-1-yl)-5-oxopentyl)guanidine Trihydrochloride]	< 1
O=c1[nH]c(CS[C@H]2CNC[C@H]2F)nc2cc(NC3CCCC3)cc(F)c12 (relative stereo) [Example 223, 7-(Cyclopentylamino)-5-fluoro-2-(((cis-4-fluoropyrrolidin-3-yl)thio)methyl)quinazolin-4(3H)-one Trifluoroacetate]	< 1
CNC[C@H]1CC[C@H](SCc2nc3c(C)cccc3c(=O)[nH]2)CC1 [Example 73, 8-Methyl-2-(((trans-4-((methylamino)methyl)cyclohexyl)thio)methyl) quinazolin-4(3H)-one]	< 1
CC(C)Cc1ccc2c(=O)[nH]c(CSC3CCOCC3)nc2c1 [Example 202, 7-Isobutyl-2-(((tetrahydro-2H-pyran-4-yl)thio)methyl)quinazolin-4(3H)-one]	1 to 10
O=c1[nH]c(CSC2CCOCC2)nc2ncccc12 [Example 43, 2-(((Tetrahydro-2H-pyran-4-yl)thio)methyl)pyrido[2,3-d]pyrimidin-4(3H)-one]	> 10
CS(=O)(=O)N1CCC[C@@H](Nc2ccc3c(=O)[nH]c(CSC4CCOCC4)nc3c2)C1 [Example 193, (R)-7-((1-(methylsulfonyl)piperidin-3-yl)amino)-2-(((tetrahydro-2H-pyran-4-yl)thio)methyl)quinazolin-4(3H)-one]	< 1
Cc1cncc(Nc2ccc3c(=O)[nH]c(CSC4CCOCC4)nc3c2)c1 [Example 92, 7-((5-Methylpyridin-3-yl)amino)-2-(((tetrahydro-2H-pyran-4-yl)thio)methyl)quinazolin-4(3H)-one]	1 to 10
Cc1c(F)ccc2c(=O)[nH]c(CSC3CCOCC3)nc12 [Example 33, 7-Fluoro-8-methyl-2-(((tetrahydro-2H-pyran-4-yl)thio)methyl)quinazolin-4(3H)-one]	< 1
Cc1c(Oc2ccccc2)ccc2c(=O)[nH]c(CSC3CCOCC3)nc12 [Example 135, 8-Methyl-7-phenoxy-2-(((tetrahydro-2H-pyran-4-yl)thio)methyl)quinazolin-4(3H)-one]	> 10
Cc1cccc2c(=O)[nH]c(CS[C@H]3CCC[C@H](CO)C3)nc12 (relative stereo) [Example 70, 2-(((trans-3-(Hydroxymethyl)cyclohexyl)thio)methyl)-8-methylquinazolin-4(3H)-one]	1 to 10
Cc1cccnc1CN1CCC(SCc2nc3c(C)cccc3c(=O)[nH]2)CC1 [Example 146, 8-Methyl-2-(((1-((3-methylpyridin-2-yl)methyl)piperidin-4-yl)thio)methyl)quinazolin-4(3H)-one bistrifluoroacetate]	< 1

Next, values leading:

IC50 [µM]	Structure (SMILES)
< 1	O=c1[nH]c(CSC2CCNCC2)nc2cc(OCC3CCCC3)cc(F)c12 [Example 282, 7-(Cyclopentylmethoxy)-5-fluoro-2-((piperidin-4-ylthio)methyl)quinazolin-4(3H)-one 2,2,2-trifluoroacetate]
< 1	CN1CCC(COc2cc(F)c3c(=O)[nH]c(CSC4CCOCC4)nc3c2)C(F)(F)C1 (stereo not shown) [Example 427]
< 1	CN1CCN([C@H]2CC[C@@H](Nc3cc4nc(CSC5CCOCC5)[nH]c(=O)c4c(F)c3F)CC2)CC1 [Example 347]
> 10	Nc1cc2nc(CSC3CCOCC3)[nH]c(=O)c2c(F)c1F [Example 403]
< 1	Cc1cc(OCC2CCOCC2)cc2nc(CSC3CCOCC3)[nH]c(=O)c12 [Example 364]
< 1	CC1(C)CC(COc2cc(F)c3c(=O)[nH]c(CS[C@H]4CC[C@H](O)CC4)nc3c2)CO1 (stereo partly shown) [Example 355]
1 to 10	O=c1[nH]c(CSC2CCOCC2)nc2cc(OC[C@H]3CCNC[C@@H]3F)cc(F)c12 (relative stereo) [Example 352]
< 1	O=c1[nH]c(CSC2CCNCC2)nc2cc(NC3CCC(F)(F)C3)cc(F)c12 (stereo not shown) [Example 266, 7-((3,3-Difluorocyclopentyl)amino)-5-fluoro-2-((piperidin-4-ylthio)methyl)quinazolin-4(3H)-one]
< 1	O=c1[nH]c(CSC2CCOCC2)nc2cc(NCC3CCOCC3)c(F)c(F)c12 [Example 338]
< 1	CC(=O)N[C@H]1C[C@@H](SCc2nc3cc(OCC4CCOCC4)cc(F)c3c(=O)[nH]2)C1 [Example 387]
< 1	O=c1[nH]c(CSC2CCOCC2)nc2cc(OC[C@H]3CCC[C@H]3O)cc(F)c12 (relative stereo) [Example 359]
< 1	O=c1[nH]c(CSC2CCNCC2)nc2cc(OCC3CCC3)cc(F)c12 [Example 280, 7-(Cyclobutylmethoxy)-5-fluoro-2-((piperidin-4-ylthio)methyl)quinazolin-4(3H)-one 2,2,2-trifluoroacetate]
< 1	CS(=O)(=O)N1CCC[C@@H](Nc2ccc3c(=O)[nH]c(CS[C@H]4CC[C@H](O)CC4)nc3c2)C1 [Example 267, 2-(((Trans-4-hydroxycyclohexyl)thio)methyl)-7-(((R)-1-(methylsulfonyl)piperidin-3-yl)amino)quinazolin-4(3H)-one]
< 1	O=c1[nH]c(CS[C@H]2CC[C@H](O)CC2)nc2cc(N[C@H]3CCC[C@@H]3F)cc(F)c12 (relative stereo) [Example 340]
< 1	O=c1[nH]c(CSC2CCOCC2)nc2cc(OCC3COCCO3)cc(F)c12 (stereo not shown) [Example 344]
< 1	CC(=O)N1CCC(CNc2cc3nc(CSC4CCOCC4)[nH]c(=O)c3c(F)c2F)CC1 [Example 369]
